What was measured:
Test in all cases: relative viability (nuclei count vs DMSO), 5 days (fraction); higher = more cells survive
[1] = compound: C1CNCCC1C2=CC(=NN2)C3=CC=NC=C3 + CS(=O)(=O)CCNCc1ccc(-c2ccc3ncnc(Nc4ccc(OCc5cccc(F)c5)c(Cl)c4)c3c2)o1 [Lapatinib] (partner 2 µM)
Outline: (§1)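 Values are medians from duplicate plates. Each reflects relative viability, defined as the nuclei count of treated wells over that of vehicle wells. Lung cancer cell lines in 1536-well plates were pin-tool dosed one day after seeding with one drug alone or with a fixed anchor-drug dose plus five library-drug doses (not always all listed) in √10 steps, then fixed, stained and imaged at 4× after 5 days.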

[2] = compound: C1CNCCC1C2=CC(=NN2)C3=CC=NC=C3 + CC1(C)CCC(c2ccc(Cl)cc2)=C(CN2CCN(c3ccc(C(=O)NS(=O)(=O)c4ccc(N[C@H](CCN5CCOCC5)CSc5ccccc5)c(S(=O)(=O)C(F)(F)F)c4)cc3)CC2)C1 [Navitoclax] (partner 0.5 µM)
Outline: as §1

Tanzisertib + Dasatinib = compound: O[C@H]1CC[C@H](Nc2ncc3nc(Nc4c(F)cc(F)cc4F)n([C@H]4CCOC4)c3n2)CC1 [Tanzisertib] + Cc1nc(Nc2ncc(C(=O)Nc3c(C)cccc3Cl)s2)cc(N2CCN(CCO)CC2)n1 [Dasatinib] (partner 0.075 µM)
Outline: as §1

[3] = compound: C[C@@H](N)c1ccc(C(=O)Nc2ccnc3[nH]ccc23)cc1 + O=C(CCCCCCC(=O)Nc1ccccc1)NO [Vorinostat] (partner 1 µM)
Outline: as §1

Cell Line | relative viability ([1]; first compound 0.08 µM) | relative viability ([1]; first compound 0.8 µM) | relative viability ([1]; first compound 2.53 µM) | relative viability ([1]; first compound 8 µM) | relative viability ([2]; first compound 0.08 µM) | relative viability ([2]; first compound 0.8 µM) | relative viability ([2]; first compound 2.53 µM) | relative viability ([2]; first compound 8 µM) | relative viability (Tanzisertib + Dasatinib; first compound 0.08 µM) | relative viability (Tanzisertib + Dasatinib; first compound 0.253 µM) | relative viability (Tanzisertib + Dasatinib; first compound 0.8 µM) | relative viability (Tanzisertib + Dasatinib; first compound 2.53 µM) | relative viability (Tanzisertib + Dasatinib; first compound 8 µM) | relative viability ([3]; first compound 0.04 µM) | relative viability ([3]; first compound 0.1265 µM) | relative viability ([3]; first compound 0.4 µM) | relative viability ([3]; first compound 1.265 µM) | relative viability ([3]; first compound 4 µM)
201T | 0.975 | 0.978 | 0.994 | 0.986 | 1.25 | 1.15 | 1.2 | 1.18 | 0.546 | 0.608 | 0.537 | 0.496 | 0.582 | 0.909 | 0.886 | 0.981 | 0.891 | 1.24
A549 | 0.863 | 1.02 | 1.14 | 0.952 | 1.1 | 1.27 | 1.38 | 1.3 | – | – | – | – | – | – | – | – | – | –
A-427 | 1.12 | 1.15 | 0.971 | 0.978 | 0.954 | 0.913 | 1.02 | 0.93 | 0.778 | 0.684 | 0.65 | 0.646 | 0.808 | 0.77 | 0.851 | 0.81 | 0.746 | 0.772
ABC-1 | 1.14 | 1.25 | 1.09 | 1.38 | – | – | – | – | 0.586 | 0.604 | 0.523 | 0.614 | 0.597 | 1.23 | 1.11 | 1.01 | 0.998 | 0.941
BEN | 0.594 | 0.571 | 0.939 | 0.761 | 0.0512 | 0.0642 | 0.0601 | 0.0843 | 0.306 | 0.374 | 0.442 | 0.355 | 0.32 | 0.592 | 0.573 | 0.589 | 0.585 | 0.587
CAL-12T | 0.714 | 0.613 | 0.811 | 0.666 | 1.11 | 1.45 | 1.29 | 1.43 | 0.453 | 0.343 | 0.375 | 0.314 | 0.319 | 0.863 | 0.771 | 0.914 | 0.876 | 0.897
COR-L23 | 0.989 | 1.3 | 0.98 | 1.01 | 0.905 | 1.3 | 1.1 | 1.03 | 0.527 | 0.473 | 0.491 | 0.494 | 0.396 | 0.51 | 0.486 | 0.479 | 0.417 | 0.212
COR-L 105 | 0.32 | 0.34 | 0.389 | 0.363 | 0.751 | 0.706 | 0.774 | 0.788 | 0.397 | 0.356 | 0.297 | 0.354 | 0.255 | 1.04 | 0.793 | 0.998 | 0.76 | 0.544
Calu-6 | 0.987 | 1.17 | 1.12 | 1.05 | 0.879 | 0.86 | 0.914 | 0.87 | – | – | – | – | – | – | – | – | – | –
ChaGo-K-1 | – | – | – | – | 0.861 | 1.29 | 0.682 | 1.01 | 0.647 | 0.606 | 0.605 | 0.533 | 0.59 | 0.702 | 0.751 | 0.743 | 0.555 | 0.676
EBC-1 | 0.202 | 0.219 | 0.209 | 0.239 | 0.463 | 0.517 | 0.5 | 0.392 | – | – | – | – | – | – | – | – | – | –
EKVX | 0.211 | 0.184 | 0.208 | 0.208 | 1.03 | 0.713 | 1.07 | 0.96 | 0.467 | 0.565 | 0.55 | 0.503 | 0.411 | 0.672 | 0.672 | 0.83 | 0.44 | 0.517
EMC-BAC-2 | 0.682 | 0.927 | 0.897 | 0.87 | 1.11 | 1.37 | 1.25 | 1.14 | 0.315 | 0.321 | 0.328 | 0.351 | 0.299 | 0.314 | 0.526 | 0.427 | 0.341 | 0.395
EPLC-272H | 0.92 | 1 | 1.14 | 1.03 | 1.12 | 1.22 | 1.19 | 1.17 | 0.416 | 0.373 | 0.367 | 0.359 | 0.333 | 0.548 | 0.567 | 0.497 | 0.352 | 0.351
H3255 | 0.265 | 0.255 | 0.262 | 0.261 | 0.52 | 0.444 | 0.738 | 0.537 | 0.426 | 0.499 | 0.306 | 0.345 | 0.344 | 0.89 | 0.816 | 0.886 | 0.655 | 0.715
HARA | 0.755 | 0.874 | 0.736 | 0.701 | 1.13 | 1.14 | 1.17 | 1.2 | 0.279 | 0.246 | 0.254 | 0.278 | 0.265 | 0.521 | 0.646 | 0.604 | 0.403 | 0.26
HCC-15 | 0.849 | 0.953 | 0.871 | 0.823 | 0.756 | 0.785 | 0.706 | 0.662 | 0.764 | 0.646 | 0.637 | 0.642 | 0.591 | 0.844 | 0.817 | 0.933 | 0.997 | 0.868
HCC-44 | 1.04 | 1.14 | 1.04 | 0.966 | 0.931 | 1 | 1.07 | 0.971 | – | – | – | – | – | 1.16 | 1.07 | 1.02 | 1.16 | 0.82
HCC-78 | 0.723 | – | 0.871 | 0.86 | 0.729 | – | 0.836 | 0.884 | 0.469 | 0.54 | 0.3 | 0.325 | 0.255 | 0.533 | 0.425 | 0.622 | 0.706 | 0.618
HCC-366 | 0.864 | 1.13 | 1.04 | 1.04 | 1.02 | 1.12 | 1.07 | 1.08 | 0.81 | 0.606 | 0.629 | 0.62 | 0.542 | 0.385 | 0.306 | 0.486 | 0.181 | 0.398
